Data: patent US11040028B2, “Penicinotam derivative, preparation method and use thereof” (OCEAN UNIVERSITY OF CHINA, priority 2017, dated 2021)

Tests used:
Type in all cases: cell-based
BHK-21 cells = assay: Anti-fibrosis activity test: inhibition of BHK-21 cell proliferation (CCK-8); details: Mesocricetus auratus, BHK-21, 48 h
Outline: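 BHK-21 cells seeded at 2×10^4 cells/mL, allowed to adhere 24 h at 37° C, 5% CO2, then exposed to compounds at graded concentrations in triplicate for 48 h. CCK-8 added for 2 h and absorbance read at 450 nm; inhibition rate taken as (1−Ai/Ao)×100% and IC50 fitted.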

[1] = system: human lung fibroblasts HFL1; assay: Anti-fibrosis activity test: inhibition of proliferation of human lung fibroblasts HFL1 (CCK-8); details: Homo sapiens, HFL1, 48 h
Outline: (§1)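 Cells seeded at 2×10^4 cells/mL, adhered 24 h, then exposed to compound concentrations in triplicate for 48 h at 37° C, 5% CO2. CCK-8 added for 2 h, absorbance at 450 nm; inhibition = (1−Ai/Ao)×100% versus blank control, IC50 calculated.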

[2] = system: human hepatic stellate cells LX-2; assay: Anti-fibrosis activity test: inhibition of proliferation of human hepatic stellate cells LX-2 (CCK-8); details: Homo sapiens, 48 h
Outline: as §1

[3] = system: human fibrosarcoma cells HT-1080; assay: Anti-fibrosis activity test: inhibition of proliferation of human fibrosarcoma cells HT-1080 (CCK-8); details: Homo sapiens, HT-1080, 48 h
Outline: as §1

[4] = system: human dermal fibroblasts CCC-ESF-1; assay: Anti-fibrosis activity test: inhibition of proliferation of human dermal fibroblasts CCC-ESF-1 (CCK-8); details: Fibroblast
Outline: as §1

[5] = system: human embryonic lung fibroblast IMR-90; assay: Anti-fibrosis activity test: inhibition of proliferation of human embryonic lung fibroblast IMR-90 (CCK-8)
Outline: as §1

[6] = system: cardiac fibroblast RAT-iCell-C002; assay: Anti-fibrosis activity test: inhibition of proliferation of cardiac fibroblast RAT-iCell-C002 (CCK-8); details: Cardiac fibroblast, 48 h
Outline: as §1

NF-κB = assay: Immunological activity test: inhibition of NF-κB activity; details: initial concentration of 30 μM; a/b isomers given as first/second symbol; read-out: IC50 (μM), inhibitory activity against NF-κB
Outline: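 IC50 values come from further analysis of the data after an initial test at a single 30 μM concentration. Parthenolide served as the reference inhibitor.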

[7] = system: mouse macrophages (RAW264.7); assay: Lipopolysaccharide-induced NO secretion in macrophages (Griess); details: Mus musculus, RAW264.7, 24 h, RAW264.7, LPS 1 μg/ml, a/b isomers given as first/second symbol, read-out: IC50 (μM), inhibition of lipopolysaccharide-induced NO secretion in macrophages
Outline: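 RAW264.7 macrophages in DMEM with 10% FBS received test samples at several concentrations and were stimulated with 1 μg/ml LPS for 24 h. NO in the supernatant was measured with the Griess reagent at 548 nm, […].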

[8] = CCK-8, 48 hours after administration
[9] = human lung fibroblasts HFL1, CCK-8, 48 hours
[10] = human hepatic stellate cells LX-2, CCK-8, 48 hours
[11] = human fibrosarcoma cells HT-1080, CCK-8, 48 hours
[12] = human dermal fibroblasts CCC-ESF-1, CCK-8, 48 hours
[13] = human embryonic lung fibroblast IMR-90, CCK-8, 48 hours
[14] = cardiac fibroblast RAT-iCell-C002, CCK-8, 48 hours
[15] = Homo sapiens, CCC-ESF-1 cells, 48 h, CCK-8
[16] = Homo sapiens, IMR-90 cells, 48 h, CCK-8

Compound | IC50 [3, 11] [mM] | IC50 (NF-κB) [µM] | IC50 [7] [µM] | IC50 ([3]; HT-1080 cells, 48 h, CCK-8) [mM] | IC50 (BHK-21 cells; [8]) [mM] | IC50 [1, 9] [mM] | IC50 [2, 10] [mM] | IC50 [4, 12] [mM] | IC50 [5, 13] [mM] | IC50 [6, 14] [mM] | IC50 (BHK-21 cells; 48 h, CCK-8) [mM] | IC50 ([1]; HFL1 cells, 48 h, CCK-8) [mM] | IC50 ([2]; LX-2, 48 h, LX-2 cells, CCK-8) [mM] | IC50 [4, 15] [mM] | IC50 [5, 16] [mM] | IC50 ([6]; RAT-iCell-C002 cells, CCK-8) [mM]
Cc1cc(C)c2c(O)c3c(nc2c1)-c1cccn1C3=O [Compound 768b, 9-hydroxy-6,8-dimethyl-10H-pyrrolizino[1,2-b]quinolin-10-one] |  | 1 to 10 | 1 to 10 | 0.05 to 5 |  |  |  |  |  |  | 0.05 to 5 | 0.05 to 5 | 0.05 to 5 | 0.05 to 5 | 0.05 to 5 | 0.05 to 5
COc1cccc2c(O)c3c(nc12)-c1cccn1C3=O [Compound 446b, 9-hydroxy-5-methoxy-10H-pyrrolizino[1,2-b]quinolin-10-one] | 0.05 to 5 | 0.001 to 0.1 | 1 to 10 |  | 0.05 to 5 | 0.05 to 5 | 0.05 to 5 | 0.05 to 5 | 0.05 to 5 | 0.05 to 5 |  |  |  |  |  | 
Cc1ccc2n1C(=O)c1[nH]c3ccccc3c(=O)c1-2 [Compound 799a, 3-Methyl-5H-pyrrolizino[2,1-b]quinoline-5,11(6H)-dione] |  | 1 to 10 | 1 to 10 | < 0.05 |  |  |  |  |  |  | 0.05 to 5 | 0.05 to 5 | 0.05 to 5 | 0.05 to 5 | 0.05 to 5 | 0.05 to 5
COCCOc1c2c(nc3ccccc13)-c1cccn1C2=O [Compound 652b, 9-(2-methoxyethoxy)-10H-pyrrolizino[1,2-b]quinolin-10-one] | 0.05 to 5 | 1 to 10 | 1 to 10 |  | 0.05 to 5 | 0.05 to 5 | 0.05 to 5 | 0.05 to 5 | 0.05 to 5 | 0.05 to 5 |  |  |  |  |  | 
O=C1c2c([nH]c3cc(N4CCNCC4)ccc3c2=O)-c2cccn21 [Compound 319a, 6-(piperazin-1-yl)-9H-pyrrolizino[1,2-b]quinoline-9,10(4H)-dione] | 0.05 to 5 | 1 to 10 | 1 to 10 |  | 0.05 to 5 | 0.05 to 5 | 0.05 to 5 | < 0.05 | 0.05 to 5 | 0.05 to 5 |  |  |  |  |  | 
O=C1c2c(nc3ccccc3c2OCc2ccc(F)cc2F)-c2cccn21 [Compound 578b, 9-((2,4-difluorobenzyl)oxy)-10H-pyrrolizino[1,2-b]quinolin-10-one] | 0.05 to 5 | 1 to 10 | 1 to 10 |  | 0.05 to 5 | 0.05 to 5 | 0.05 to 5 | 0.05 to 5 | 0.05 to 5 | 0.05 to 5 |  |  |  |  |  | 
COc1ccc2c(=O)c3c([nH]c2c1)-c1cccn1C3=O [Compound 560a, 6-Methoxy-9H-pyrrolizino[1,2-b]quinoline-9,10(4H)-dione] | 0.05 to 5 | 1 to 10 | 10 to 50 |  | 0.05 to 5 | 0.05 to 5 | 0.05 to 5 | 0.05 to 5 | 0.05 to 5 | 0.05 to 5 |  |  |  |  |  | 
O=C1c2c(nc3ccccc3c2OCCN2CCNCC2)-c2cccn21 [Compound 98b, 9-(2-(piperazin-1-yl)ethoxy)-10H-pyrrolizino[1,2-b]quinolin-10-one] | 0.05 to 5 | 1 to 10 | 1 to 10 |  | 0.05 to 5 | 0.05 to 5 | 0.05 to 5 | 0.05 to 5 | 0.05 to 5 | 0.05 to 5 |  |  |  |  |  | 
N#Cc1ccc2nc3c(c(O)c2c1)C(=O)n1cccc1-3 [Compound 222b, 9-hydroxy-10-oxo-10H-pyrrolizino[1,2-b]quinoline-7-carbonitrile] | 0.05 to 5 | 1 to 10 | 1 to 10 |  | 0.05 to 5 | 0.05 to 5 | 0.05 to 5 | 0.05 to 5 | 0.05 to 5 | 0.05 to 5 |  |  |  |  |  | 

Further lines, with some results ahead:

IC50 [3, 11] [mM] | IC50 (NF-κB) [µM] | IC50 [7] [µM] | IC50 ([3]; HT-1080 cells, 48 h, CCK-8) [mM] | Compound | IC50 (BHK-21 cells; [8]) [mM] | IC50 [1, 9] [mM] | IC50 [2, 10] [mM] | IC50 [4, 12] [mM] | IC50 [5, 13] [mM] | IC50 [6, 14] [mM] | IC50 (BHK-21 cells; 48 h, CCK-8) [mM] | IC50 ([1]; HFL1 cells, 48 h, CCK-8) [mM] | IC50 ([2]; LX-2, 48 h, LX-2 cells, CCK-8) [mM] | IC50 [4, 15] [mM] | IC50 [5, 16] [mM] | IC50 ([6]; RAT-iCell-C002 cells, CCK-8) [mM]
0.05 to 5 | 0.1 to 1 | 1 to 10 |  | O=C1c2c(n(Cc3ccc(F)cc3)c3cccc(F)c3c2=O)-c2cccn21 [Compound 468a, 8-Fluoro-4-(4-fluorobenzyl)-9H-pyrrolizino[1,2-b]quinoline-9,10(4H)-dione] | < 0.05 | 0.05 to 5 | 0.05 to 5 | 0.05 to 5 | 0.05 to 5 | 0.05 to 5 |  |  |  |  |  | 
0.05 to 5 | 1 to 10 | 1 to 10 |  | O=C1c2c(n(Cc3ccc(Cl)cc3)c3ccccc3c2=O)-c2cccn21 [Compound 589a, 4-(4-Chlorobenzyl)-9H-pyrrolizino[1,2-b]quinoline-9,10(4H)-dione] | < 0.05 | 0.05 to 5 | < 0.05 | 0.05 to 5 | 0.05 to 5 | 0.05 to 5 |  |  |  |  |  | 
0.05 to 5 | 1 to 10 | 1 to 10 |  | O=C(O)c1ccccc1-c1ccc(Cn2c3c(c(=O)c4ccccc42)C(=O)n2cccc2-3)cc1 [Compound 81a, 4′-((9,10-Dioxo-9H-pyrrolizino[1,2-b]quinolin-4(10H)-yl)methyl)-[1,1′-biphenyl]-2-carboxylic acid] | < 0.05 | 0.05 to 5 | < 0.05 | 0.05 to 5 | < 0.05 | 0.05 to 5 |  |  |  |  |  | 
 | 0.1 to 1 | 1 to 10 | 0.05 to 5 | O=C1c2c(n(CCCCN3CCNCC3)c3ccccc3c2=O)-c2cccn21 [Compound 670a, 4-(4-(Piperazin-1-yl)butyl)-9H-pyrrolizino[1,2-b]quinoline-9,10(4H)-dione] |  |  |  |  |  |  | < 0.05 | 0.05 to 5 | 0.05 to 5 | 0.05 to 5 | < 0.05 | 0.05 to 5
0.05 to 5 | 1 to 10 | 1 to 10 |  | COc1cccc(Cn2c3c(c(=O)c4ccccc42)C(=O)n2cccc2-3)c1 [Compound 610a, 4-(3-Methoxybenzyl)-9H-pyrrolizino[1,2-b]quinoline-9,10(4H)-dione] | 0.05 to 5 | 0.05 to 5 | 0.05 to 5 | 0.05 to 5 | 0.05 to 5 | 0.05 to 5 |  |  |  |  |  | 
0.05 to 5 | 1 to 10 | 1 to 10 |  | O=C1c2c(nc3ccccc3c2OCc2cccc(I)c2)-c2cccn21 [Compound 608b, 9-((3-iodobenzyl)oxy)-10H-pyrrolizino[1,2-b]quinolin-10-one] | 0.05 to 5 | 0.05 to 5 | 0.05 to 5 | 0.05 to 5 | 0.05 to 5 | 0.05 to 5 |  |  |  |  |  | 
0.05 to 5 | 0.1 to 1 | 10 to 50 |  | O=C1c2c(n(Cc3cc(C(F)(F)F)ccc3Cl)c3ccccc3c2=O)-c2cccn21 [Compound 611a, 4-(2-Chloro-5-(trifluoromethyl)benzyl)-9H-pyrrolizino[1,2-b]quinoline-9,10(4H)-dione] | 0.05 to 5 | 0.05 to 5 | 0.05 to 5 | 0.05 to 5 | 0.05 to 5 | 0.05 to 5 |  |  |  |  |  | 
0.05 to 5 | 1 to 10 | 1 to 10 |  | O=C1c2c(n(CCCO)c3ccccc3c2=O)-c2cccn21 [Compound 16a, 4-(3-Hydroxypropyl)-9H-pyrrolizino[1,2-b]quinoline-9,10(4H)-dione] | 0.05 to 5 | 0.05 to 5 | 0.05 to 5 | 0.05 to 5 | 0.05 to 5 | 0.05 to 5 |  |  |  |  |  | 
0.05 to 5 | 1 to 10 | 0.1 to 1 |  | O=C1c2c(nc3ccccc3c2OCc2cc(F)ccc2F)-c2cccn21 [Compound 573b, 9-((2,5-difluorobenzyl)oxy)-10H-pyrrolizino[1,2-b]quinolin-10-one] | 0.05 to 5 | 0.05 to 5 | 0.05 to 5 | 0.05 to 5 | 0.05 to 5 | < 0.05 |  |  |  |  |  | 
0.05 to 5 | 1 to 10 | 0.1 to 1 |  | O=C1c2c(n(Cc3c(F)c(F)c(F)c(F)c3F)c3ccccc3c2=O)-c2cccn21 [Compound 586a, 4-((Perfluorophenyl)methyl)-9H-pyrrolizino[1,2-b]quinoline-9,10(4H)-dione] | 0.05 to 5 | 0.05 to 5 | 0.05 to 5 | 0.05 to 5 | 0.05 to 5 | 0.05 to 5 |  |  |  |  |  | 
